Test results taken from ChEMBL document CHEMBL5331099, “Chemical scaffold recycling: Structure-guided conversion of an HIV integrase inhibitor into a potent influenza virus RNA-dependent RNA polymerase inhibitor designed to minimize resistance potential” (Eur J Med Chem, 2023).

Assay: Inhibition of Influenza A virus A/California/04/2009 (H1N1) N-terminal his tagged domain of PA endonuclease expressed in Escherichia coli BL21 (DE3) cells preincubated with enzyme for 1 hr followed by RNA addition and measured after 90 mins by MALDI-FTICR-MS analysis

Row | SMILES | IC50
1 | CC(C)(NC(=O)OCc1ccccc1)c1nc(O)c(O)c(C(=O)NCCc2ccc(F)cc2)n1 | 6450 nM
2 | O=C1NCCc2cccc(c2)OC/C=C\COc2cccc(c2)-c2nc1c(O)c(=O)[nH]2 | 4960 nM
3 | COc1cnccc1CCNC(=O)c1nc(C(C)(C)NC(=O)OCc2ccccc2)[nH]c(=O)c1O | 1970 nM
4 | CC(C)(NC(=O)OCc1ccccc1)c1nc(C(=O)NCCn2cnc3c(N)ncnc32)c(O)c(=O)[nH]1 | 1620 nM
5 | COc1cnccc1CCNC(=O)c1nc(-c2ccccc2)[nH]c(=O)c1O | 1220 nM
6 | CC(C)(NC(=O)OCc1ccccc1)c1nc(C(=O)NCc2ccc(F)cc2)c(O)c(=O)[nH]1 | > 20000 nM
7 | COc1cc(CCNC(=O)c2nc(-c3ccccc3C(F)(F)F)[nH]c(=O)c2O)ccc1O | 270 nM
8 | O=C1NCCc2cccc(c2)OCCCCOc2cccc(c2)-c2nc1c(O)c(=O)[nH]2 | > 20000 nM
9 | COc1cnccc1CCNC(=O)c1nc(-c2ccccc2C(F)(F)F)[nH]c(=O)c1O | 420 nM
10 | O=C1c2c(O)c(=O)ccn2N([C@@H]2c3ccccc3SCc3c2ccc(F)c3F)C2COCCN12 (stereo partly drawn) | 50 nM
11 | COc1cnccc1CCNC(=O)c1nc(-c2ccccc2F)[nH]c(=O)c1O | 820 nM
12 | O=C1NCCc2cccc(c2)OC/C=C/COc2cccc(c2)-c2nc1c(O)c(=O)[nH]2 | 12500 nM
13 | COc1cnccc1CCNC(=O)c1nc(Cc2ccccc2C(F)(F)F)[nH]c(=O)c1O | > 20000 nM
14 | COc1cnccc1CCNC(=O)c1nc(-c2cccc(C(F)(F)F)c2)[nH]c(=O)c1O | 4530 nM
15 | Nc1ncnc2c1ncn2CCNC(=O)c1nc(-c2ccccc2C(F)(F)F)[nH]c(=O)c1O | 290 nM
16 | COc1cnccc1CCNC(=O)c1nc(-c2c(F)cccc2F)[nH]c(=O)c1O | 1110 nM
17 | COc1cnccc1CCNC(=O)c1nc(-c2ccc(C(F)(F)F)cc2)[nH]c(=O)c1O | > 20000 nM
18 | COc1cnccc1CCNC(=O)c1nc(-c2ccccc2C)[nH]c(=O)c1O | 390 nM
19 | COc1cc(CCNC(=O)c2nc(C(C)(C)NC(=O)OCc3ccccc3)[nH]c(=O)c2O)ccc1O | 620 nM
20 | Cc1nnc(C(=O)NC(C)(C)c2nc(C(=O)NCc3ccc(F)cc3)c(O)c(=O)n2C)o1 [RALTEGRAVIR] | > 20000 nM

Assay: Binding affinity to Influenza A virus A/California/04/2009 (H1N1) wild type N-terminal his tagged domain of PA endonuclease expressed in Escherichia coli BL21 (DE3) cells assessed as dissociation constant by MST assay

Row | SMILES | Kd
21 | COc1cnccc1CCNC(=O)c1nc(-c2ccccc2C(F)(F)F)[nH]c(=O)c1O | 54 nM
22 | O=C1c2c(O)c(=O)ccn2N([C@@H]2c3ccccc3SCc3c2ccc(F)c3F)C2COCCN12 (stereo partly drawn) | 6 nM
23 | Nc1ncnc2c1ncn2CCNC(=O)c1nc(-c2ccccc2C(F)(F)F)[nH]c(=O)c1O | 18 nM
